Data: patent publication US7868005B2, “Pyrazinyl substituted piperazine-piperidines with CXCR3 antagonist activity” (Schering Corporation, priority 2005, dated 2011)

Target: T1, human CXCR3 (N-delta 4) (Homo sapiens, UniProt P49682)
T1 construct: CD8 leader (N); Flag; expressed in transfected cells; membranes prepared
T1 sequence (P49682 5-368 limits assumed): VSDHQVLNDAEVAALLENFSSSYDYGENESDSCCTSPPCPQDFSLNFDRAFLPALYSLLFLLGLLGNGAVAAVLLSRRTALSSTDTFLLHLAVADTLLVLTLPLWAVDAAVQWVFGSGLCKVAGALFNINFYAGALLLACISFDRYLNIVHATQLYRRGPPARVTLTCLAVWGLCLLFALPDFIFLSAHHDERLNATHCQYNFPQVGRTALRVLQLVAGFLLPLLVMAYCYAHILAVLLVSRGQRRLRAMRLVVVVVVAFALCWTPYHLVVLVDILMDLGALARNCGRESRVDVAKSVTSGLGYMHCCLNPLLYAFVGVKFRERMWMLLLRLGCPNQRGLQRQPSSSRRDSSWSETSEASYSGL
Assay: Human CXCR3 (N-delta 4) Scintillation Proximity Assay (SPA), [125I] IP-10 binding to Ba/F3-hCXCR3 membranes
Settings: IC50 rating, Table 1; read-out: IC50
Description: The inventive compounds can readily be evaluated to determine activity at the CXCR3 receptors by known methods, such as, for example, development of a human CXCR3 (N-delta 4) Binding Assay.
Cloning and Expression of Human CXCR3 (N-delta 4):
The DNA encoding human CXCR3 was cloned by PCR using human genomic DNA (Promega, Madison, Wis.) as a template. The PCR primers were designed based on the published sequence of human orphan receptor GPR9 (1) with incorporated restriction sites, a Kozak consensus sequence, CD8 leader and Flag tag. The PCR product was subcloned into the mammalian expression vector pME18Sneo, a derivative of the SR-alpha expression vector (designated as pME18Sneo-hCXCR3 (N-delta 4).
IL-3-dependent mouse pro-B cells Ba/F3 were transfected by electroporation in 0.4 ml Dulbecco's PBS containing 4×10^6 cells with 20 μg of pME18Sneo-hCXCR3 (N-delta 4) plasmid DNA. Cells were pulsed at 400 Volts, 100 OHMs, 960 μFd. The transfected cells were under selection with 1 mg/ml G418 (Life Technologies, Gaithersburg, Md.). G418-resistant Ba/F3 clones were screened for CXCR3 expression by specific binding of [^125I] IP-10 (NEN Life Science Products, Boston, Mass.).
Preparation of Ba/F3-hCXCR3 (N-delta 4) Membranes:
Ba/F3 cells expressing human CXCR3 (N-delta 4) were pelleted and resuspended in the lysis buffer containing 10 mM HEPES, pH 7.5 and Complete® protease inhibitors (1 tablet per 100 ml) (Boehringer Mannheim, Indianapolis, Ind.) at a cell density of 20×10^6 cells per ml. After 5 minute incubation on ice, cells were transferred to 4639 cell disruption bomb (Parr Instrument, Moline, Ill.) and applied with 1,500 psi of nitrogen for 30 minutes on ice. Large cellular debris was removed by centrifugation at 1,000×g. Cell membrane in the supernatant was sedimented at 100,000×g. The membrane was resuspended in the lysis buffer supplemented with 10% sucrose and stored at −80° C. Total protein concentration of the membrane was determined by BCA method from Pierce (Rockford, Ill.).
Human CXCR3 (N-delta 4) Scintillation Proximity Assay (SPA):
For each assay point, 2 μg of membrane was preincubated for 1 hr with 300 μg wheat germ agglutinin (WGA) coated SPA beads (Amersham, Arlington Heights, Ill.) in the binding buffer (50 mM HEPES, 1 mM CaCl2, 5 mM MgCl2, 125 mM NaCl, 0.002% NaN3, 1.0% BSA) at room temperature. The beads were spun down, washed once, resuspended in the binding buffer and transferred to a 96-well Isoplate (Wallac, Gaithersburg, Md.). 25 pM of [^125I] IP-10 with tested compounds in a series of titration were added to start the reaction. After 3 hr reaction at room temperature, the amount of [^125I] IP-10 bound to the SPA beads was determined with a Wallac 1450 Microbeta counter.
The Ki ratings for the various compounds of the present invention are given in the afore-mentioned Table 1. From these ratings and value ranges, it would be apparent to the skilled artisan that the compounds of the invention have excellent utility as CXCR3 receptor antagonists.

Row | IC50 | Compound
1 | < 25 nM | CC[C@H]1CN(c2nc(N)c(C(N)=O)nc2Cl)CCN1C1CCN(Cc2ccc(Cl)cc2CC(=O)NCC2CCCO2)CC1 (stereo partly shown) [compound 22]
2 | 25 to 100 nM | CC[C@H]1CN(c2nc(N)c(C(N)=O)nc2Cl)CCN1C1CCN(Cc2ccc(Cl)cc2-c2nnn[nH]2)CC1 [compound 23]
3 | 25 to 100 nM | CC[C@H]1CN(c2nc(N)c(C(N)=O)nc2Cl)CCN1C1CCN(Cc2ccc(Cl)cc2C2COC(=O)O2)CC1 (stereo partly shown) [compound 24]
4 | 25 to 100 nM | CC[C@H]1CN(c2nc(N)c(C(N)=O)nc2Cl)CCN1C1CCN(Cc2ccc(Cl)cc2C(=O)O)CC1 [compound 26]
5 | 25 to 100 nM | CC[C@H]1CN(c2nc(N)c(C(N)=O)nc2Cl)CCN1C1CCN(Cc2ccc(Cl)cc2NC(=O)C(C)O)CC1 (stereo partly shown) [compound 27]
6 | 25 to 100 nM | CC[C@H]1CN(c2nc(N)c(C(N)=O)nc2Cl)CCN1C1CCN(Cc2ccc(Cl)cc2[C@@H](O)C(N)=O)CC1 [compound 28]
7 | 25 to 100 nM | CC[C@H]1CN(c2nc(N)c(C(N)=O)nc2Cl)CCN1C1CCN(Cc2ccc(Cl)cc2CC(C)(C)O)CC1 [compound 30]
8 | 25 to 100 nM | CC[C@H]1CN(c2nc(N)c(C(N)=O)nc2Cl)CCN1C1CCN(Cc2ccc(Cl)cc2C(=O)OC)CC1 [compound 31]
9 | 25 to 100 nM | CC[C@H]1CN(c2nc(N)c(C(N)=O)nc2Cl)CCN1C1CCN(Cc2ccc(Cl)cc2CCNC=O)CC1 [compound 32]
10 | 25 to 100 nM | CC[C@H]1CN(c2nc(N)c(C(N)=O)nc2Cl)CCN1C1CCN(Cc2ccc(Cl)cc2CC#N)CC1 [compound 33]
11 | 25 to 100 nM | CC[C@H]1CN(c2nc(N)c(C(N)=O)nc2Cl)CCN1C1CCN(Cc2ccc(Cl)cc2CCNC(N)=O)CC1 [compound 34]
12 | 25 to 100 nM | CC[C@H]1CN(c2nc(N)c(C(N)=O)nc2Cl)CCN1C1CCN(Cc2ccc(Cl)cc2CC(=O)NC)CC1 [compound 35]
13 | 25 to 100 nM | CC[C@H]1CN(c2nc(N)c(C(N)=O)nc2Cl)CCN1C1CCN(Cc2ccc(Cl)cc2CCNS(C)(=O)=O)CC1 [compound 36]
14 | 25 to 100 nM | CC[C@H]1CN(c2nc(N)c(C(N)=O)nc2Cl)CCN1C1CCN(Cc2ccc(Cl)cc2CC(=O)O)CC1 [compound 37]
15 | 25 to 100 nM | CC[C@H]1CN(c2nc(N)c(C(N)=O)nc2Cl)CCN1C1CCN(Cc2ccc(Cl)cc2CC(=O)OC)CC1 [compound 38]
16 | 25 to 100 nM | CC[C@H]1CN(c2nc(N)c(C(N)=O)nc2Cl)CCN1C1CCN(Cc2ccc(Cl)cc2CCNC(=O)OC)CC1 [compound 39]
17 | 25 to 100 nM | CC[C@H]1CN(c2nc(N)c(C(N)=O)nc2Cl)CCN1C1CCN(Cc2ccc(Cl)cc2CCNC(C)=O)CC1 [compound 41]
18 | > 100 nM | CC[C@H]1CN(c2nc(N)c(C(N)=O)nc2Cl)CCN1C1CCN(Cc2ccc(Cl)cc2CC(=O)N(C)C)CC1 [compound 42]
19 | > 100 nM | CC[C@H]1CN(c2nc(N)c(C(N)=O)nc2Cl)CCN1C1CCN(Cc2ccc(Cl)cc2C2NC(=O)NC2=O)CC1 (stereo partly shown) [compound 43]
20 | > 100 nM | CC[C@H]1CN(c2nc(N)c(C(N)=O)nc2Cl)CCN1C1CCN(Cc2ccc(Cl)cc2[C@@H](O)C(=O)NC)CC1 [compound 44]
21 | > 100 nM | CC[C@H]1CN(c2nc(N)c(C(N)=O)nc2Cl)CCN1C1CCN(Cc2ccc(Cl)cc2CC(=O)NCCNS(C)(=O)=O)CC1 [compound 46]
22 | > 100 nM | CCNC(=O)NCCc1cc(Cl)ccc1CN1CCC(N2CCN(c3nc(N)c(C(N)=O)nc3Cl)C[C@@H]2CC)CC1 [compound 47]
23 | > 100 nM | CC[C@H]1CN(c2nc(N)c(C(N)=O)nc2Cl)CCN1C1CCN(Cc2ccc(Cl)cc2CC(=O)N2CC[C@H](O)C2)CC1 [compound 48]
24 | > 100 nM | CC[C@H]1CN(c2nc(N)c(C(N)=O)nc2Cl)CCN1C1CCN(Cc2ccc(Cl)cc2CC(=O)N2CC[C@@H](O)C2)CC1 [compound 51]
25 | > 100 nM | CC[C@H]1CN(c2nc(N)c(C(N)=O)nc2Cl)CCN1C1CCN(Cc2ccc(Cl)cc2CCn2ccnc2)CC1 [compound 52]
26 | > 100 nM | CC[C@H]1CN(c2nc(N)c(C(N)=O)nc2Cl)CCN1C1CCN(Cc2ccc(Cl)cc2CC(=O)N2CCOCC2)CC1 [compound 55]
27 | > 100 nM | CC[C@H]1CN(c2nc(N)c(C(N)=O)nc2Cl)CCN1C1CCN(Cc2ccc(C(=O)NC)cc2)CC1 [compound 59]
28 | < 25 nM | CC[C@H]1CN(c2nc(N)c(C(=O)NC)nc2Cl)CCN1C1CCN(Cc2ccc(Cl)cc2)CC1 [compound 61]

Further lines, the compound ahead of its results:

Row | Compound | IC50
29 | CC[C@H]1CN(c2nc(N)c(C(N)=O)nc2Cl)CCN1C1CCN(Cc2ccc(-n3cccn3)cc2)CC1 [compound 25] | 25 to 100 nM
30 | C[C@H]1CN(c2nc(N)c(C(N)=O)nc2Cl)CCN1C1CCN(Cc2ccc(Cl)cc2)CC1 [compound 29] | 25 to 100 nM
31 | CC[C@H]1CN(c2nc(N)c(C(N)=O)nc2Cl)CCN1C1CCN([C@@H](C(=O)O)c2ccc(Cl)cc2)CC1 [compound 40] | 25 to 100 nM
32 | CC[C@H]1CN(c2nc(N)c(C(N)=O)nc2Cl)CCN1C1CCN([C@@H](C(=O)NC2CC2)c2ccc(Cl)cc2)CC1 [compound 45] | > 100 nM
33 | CC[C@H]1CN(c2nc(N)c(C(N)=O)nc2Cl)CCN1C1CCN([C@H](CO)c2ccc(Cl)cc2)CC1 [compound 49] | > 100 nM
34 | CC[C@H]1CN(c2nc(N)c(C(N)=O)nc2Cl)CCN1C1CCN([C@@H](C(=O)NC)c2ccc(Cl)cc2)CC1 [compound 50] | > 100 nM
35 | CCOC(=O)C1CCC(Oc2ccc(CN3CCC(N4CCN(c5nc(N)c(C(N)=O)nc5Cl)C[C@@H]4CC)CC3)cc2)CC1 (stereo partly shown) [compound 53] | > 100 nM
36 | CC[C@H]1CN(c2nc(N)c(C(N)=O)nc2Cl)CCN1C1CCN(Cc2ccc(-n3cncn3)cc2)CC1 [compound 54] | > 100 nM
37 | CC[C@H]1CN(c2nc(N)c(C(N)=O)nc2Cl)CCN1C1CCN([C@@H](C(=O)OC)c2ccc(Cl)cc2)CC1 [compound 56] | > 100 nM
38 | CC[C@H]1CN(c2nc(N)c(C(N)=O)nc2Cl)CCN1C1CCN([C@@H](C(N)=O)c2ccc(Cl)cc2)CC1 [compound 57] | > 100 nM
39 | CC[C@H]1CN(c2nc(N)c(C(N)=O)nc2Cl)CCN1C1CCN(C(CNS(C)(=O)=O)c2ccc(Cl)cc2)CC1 (stereo partly shown) [compound 58] | > 100 nM
40 | CC[C@H]1CN(c2nc(N)c(C(N)=O)nc2Cl)CCN1C1CCN(Cc2ccc(F)c(F)c2N2CCC[C@H]2C(C)(C)O)CC1 [compound 60] | > 100 nM
41 | CC[C@H]1CN(c2nc(N)c(C(=O)NC)nc2Cl)CCN1C1CCN([C@@H](CO)c2ccc(Cl)cc2)CC1 [compound 62] | < 25 nM
42 | CC[C@H]1CN(c2nc(N)c(C(=O)NC)nc2Cl)CCN1C1CCN(C(CO)c2ccc(Cl)cc2)CC1 (stereo partly shown) [compound 63] | < 25 nM
43 | CC[C@H]1CN(c2nc(N)c(C(=O)NC)nc2Cl)CCN1C1CCN(Cc2ccc(C#N)cc2)CC1 [compound 64] | < 25 nM
44 | CNC(=O)c1nc(Cl)c(N2CCN(C3CCN(Cc4ccc(Cl)cc4)CC3)[C@@H](C)C2)nc1N [compound 65] | < 25 nM
45 | CC[C@H]1CN(c2nc(N)c(C(=O)NC)nc2Cl)CCN1C1CCN(Cc2ccc(-n3cccn3)cc2)CC1 [compound 66] | < 25 nM
46 | CC[C@H]1CN(c2nc(N)c(C(=O)OC)nc2Cl)CCN1C1CCN(Cc2ccc(Cl)cc2)CC1 [compound 67] | < 25 nM
47 | CNC(=O)c1nc(Cl)c(N2C[C@H](C)N(C3CCN(Cc4ccc(Cl)cc4F)CC3)C[C@H]2C)nc1N [compound 68] | < 25 nM
48 | CC[C@H]1CN(c2nc(N)c(C(=O)NC)nc2Cl)CCN1C1CCN([C@@H](C(=O)OC)c2ccc(Cl)cc2)CC1 [compound 69] | < 25 nM
49 | CC[C@H]1CN(c2nc(N)c(C(=O)NC)nc2Cl)CCN1C1CCN([C@@H](C(=O)O)c2ccc(Cl)cc2)CC1 [compound 70] | < 25 nM
